Reference: patent publication US9416115B2, “Fused heterocyclic compounds as ion channel modulators” (Gilead Sciences, Inc., priority 2013, dated 2016)

Columns and labels:
[1] = molecular target: wild-type human cardiac sodium channel, hNav1.5 (Homo sapiens, UniProt Q14524); assay: Late INa screening assay (QPatch whole cell patch clamp, Tefluthrin-induced late current); format: cell-based; details: HEK293 hNav1.5, percent block of late INa
Procedure, shortened: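 HEK293 cells stably expressing hNav1.5 without beta subunits were whole-cell patch clamped at 23-25 °C, stepping from −120 to −20 mV for 250 ms at 0.1 Hz. Late current (240–265 ms) was induced with 10 μM Tefluthrin, and compounds were added typically at 0.3 or 1 μM. Percent block was taken against 0 Na baseline with rundown correction.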

[2] = molecular target: hNav1.1 (SCN1A) (Homo sapiens, UniProt P35498); assay: Use-dependent inhibition of the CNS Nav1.1 sodium channel; format: cell-based; details: use-dependent block, 25 Hz, pulse 20, read-out: Nav1.1 UDB 25 Hz 10 uM
Procedure, shortened: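 HEK-293 cells stably expressing WT hNav1.1, automated whole-cell patch clamp at 23-25 °C with CsF-based internal and NaCl external solutions, pH 7.35. Compound applied twice, 200 s equilibration; block measured at pulse 20 of a 25 Hz train (0 mV, 20 ms) from −120 mV, as mean % inhibition versus compound-free.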

wild-type human cardiac sodium channel, hNav1.5, sequence (Q14524 whole entry): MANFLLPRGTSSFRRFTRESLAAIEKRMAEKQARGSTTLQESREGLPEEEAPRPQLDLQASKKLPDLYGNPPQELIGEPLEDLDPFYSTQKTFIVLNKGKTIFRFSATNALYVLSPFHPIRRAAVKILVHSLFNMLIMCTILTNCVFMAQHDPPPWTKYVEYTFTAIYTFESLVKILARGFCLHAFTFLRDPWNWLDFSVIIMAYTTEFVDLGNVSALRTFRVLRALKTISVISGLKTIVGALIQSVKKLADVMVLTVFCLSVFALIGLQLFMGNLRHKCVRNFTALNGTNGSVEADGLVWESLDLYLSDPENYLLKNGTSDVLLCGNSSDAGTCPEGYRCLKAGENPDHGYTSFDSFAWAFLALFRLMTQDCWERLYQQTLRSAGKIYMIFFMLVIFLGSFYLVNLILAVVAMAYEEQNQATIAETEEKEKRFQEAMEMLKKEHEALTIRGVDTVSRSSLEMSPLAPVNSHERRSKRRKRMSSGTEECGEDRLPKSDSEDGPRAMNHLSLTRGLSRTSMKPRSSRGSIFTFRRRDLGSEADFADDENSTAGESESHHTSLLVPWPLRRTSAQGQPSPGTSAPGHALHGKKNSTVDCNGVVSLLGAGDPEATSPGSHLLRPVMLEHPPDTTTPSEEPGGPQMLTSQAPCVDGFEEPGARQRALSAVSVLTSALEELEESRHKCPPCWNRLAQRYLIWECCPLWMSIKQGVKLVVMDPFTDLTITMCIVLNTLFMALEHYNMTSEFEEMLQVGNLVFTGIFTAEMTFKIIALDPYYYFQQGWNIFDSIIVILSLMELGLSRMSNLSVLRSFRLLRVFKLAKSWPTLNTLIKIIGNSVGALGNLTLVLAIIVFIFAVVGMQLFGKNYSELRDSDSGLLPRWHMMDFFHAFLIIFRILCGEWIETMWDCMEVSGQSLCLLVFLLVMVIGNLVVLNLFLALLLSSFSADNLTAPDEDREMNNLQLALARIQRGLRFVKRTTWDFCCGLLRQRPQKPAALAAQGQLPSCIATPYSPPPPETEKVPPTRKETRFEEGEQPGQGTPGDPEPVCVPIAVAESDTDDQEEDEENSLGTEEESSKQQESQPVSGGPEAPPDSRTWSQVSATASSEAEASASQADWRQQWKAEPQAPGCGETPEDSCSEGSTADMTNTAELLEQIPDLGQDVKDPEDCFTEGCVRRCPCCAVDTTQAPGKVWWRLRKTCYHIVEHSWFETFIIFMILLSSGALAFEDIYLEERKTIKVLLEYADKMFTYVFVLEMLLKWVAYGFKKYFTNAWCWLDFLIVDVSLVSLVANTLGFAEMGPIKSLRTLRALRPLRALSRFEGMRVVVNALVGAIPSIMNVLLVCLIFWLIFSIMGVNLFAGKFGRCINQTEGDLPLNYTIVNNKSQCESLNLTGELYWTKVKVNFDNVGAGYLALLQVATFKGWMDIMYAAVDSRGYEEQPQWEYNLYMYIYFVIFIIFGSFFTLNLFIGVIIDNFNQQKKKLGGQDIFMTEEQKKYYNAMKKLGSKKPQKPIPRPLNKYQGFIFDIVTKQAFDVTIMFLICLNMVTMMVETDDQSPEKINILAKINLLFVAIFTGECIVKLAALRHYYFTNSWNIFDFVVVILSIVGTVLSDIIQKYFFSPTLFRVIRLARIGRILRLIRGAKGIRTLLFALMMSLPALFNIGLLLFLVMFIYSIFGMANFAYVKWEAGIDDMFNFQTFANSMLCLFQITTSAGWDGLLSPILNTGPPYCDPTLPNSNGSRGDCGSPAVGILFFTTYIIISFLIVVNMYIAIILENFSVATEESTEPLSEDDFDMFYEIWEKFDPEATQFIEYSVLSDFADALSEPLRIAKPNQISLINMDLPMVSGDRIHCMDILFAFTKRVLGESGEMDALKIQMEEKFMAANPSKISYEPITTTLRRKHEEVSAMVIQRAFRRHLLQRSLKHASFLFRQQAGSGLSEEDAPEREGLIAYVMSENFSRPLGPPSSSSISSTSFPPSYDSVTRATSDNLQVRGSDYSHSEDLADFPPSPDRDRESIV

Structure (SMILES): COc1cc2onc(OCc3ncccn3)c2cc1-c1ccc(F)c(Cl)c1 [Example 15, 5-(3-chloro-4-fluorophenyl)-6-methoxy-3-(pyrimidin-2-ylmethoxy)benzo[d]isoxazole]
- inhibition at 1 µM [1]: 32.2%
- inhibition at 10 µM [2]: < 5%

Structure (SMILES): O=C1NCC[C@H]1Oc1noc2ccc(-c3ccc(OC(F)(F)F)cc3)cc12 [Example 72, (R)-3-((5-(4-(trifluoromethoxy)phenyl)benzo[d]isoxazol-3-yl)oxy)pyrrolidin-2-one]
- inhibition at 0.3 µM [1]: 14%
- inhibition at 1 µM [1]: 57.4%
- inhibition at 10 µM [2]: 78.1%

Structure (SMILES): COCCOc1noc2ccc(-c3ccc(OC(F)(F)F)cc3)cc12 [Example 60, 3-(2-methoxyethoxy)-5-(4-(trifluoromethoxy)phenyl)benzo[d]isoxazole]
- inhibition at 0.3 µM [1]: 16.8%
- inhibition at 1 µM [1]: 57.2%
- inhibition at 10 µM [2]: 27%

Structure (SMILES): FC(F)(F)Oc1ccc(-c2ccc3onc(OCc4ncccn4)c3c2)cc1 [Example 1, 3-(pyrimidin-2-ylmethoxy)-5-(4-(trifluoromethoxy)phenyl)benzo[d]isoxazole]
- inhibition at 0.3 µM [1]: 55%
- inhibition at 1 µM [1]: 66.2%
- inhibition at 10 µM [2]: 5.5%

Structure (SMILES): FC(F)(F)Oc1ccc(-c2ccc3onc(-n4cnc(-c5ccccc5)c4)c3c2)cc1 [Example 142, 3-(4-phenyl-1H-imidazol-1-yl)-5-(4-(trifluoromethoxy)phenyl)benzo[d]isoxazole]
- inhibition at 1 µM [1]: 44%
- inhibition at 10 µM [2]: 59%

Structure (SMILES): Cc1cc(-c2ccc3onc(OCc4ncccn4)c3c2)ccc1OC(F)(F)F [Example 7, 5-(3-methyl-4-(trifluoromethoxy)phenyl)-3-(pyrimidin-2-ylmethoxy)benzo[d]isoxazole]
- inhibition at 1 µM [1]: 47.5%
- inhibition at 10 µM [2]: < 5%

Structure (SMILES): CC(=O)N1CCOC[C@@H]1COc1noc2ccc(-c3ccc(OC(F)(F)F)cc3)cc12 [Example 116, (R)-1-(3-(((5-(4-(trifluoromethoxy)phenyl)benzo[d]isoxazol-3-yl)oxy)methyl)morpholino)ethan-1-one]
- inhibition at 1 µM [1]: 48.3%
- inhibition at 10 µM [2]: 70.4%

Structure (SMILES): FC(F)(F)Oc1ccc(-c2ccc3onc(-n4ccnc4)c3c2)cc1 [Example 132, 3-(1H-imidazol-1-yl)-5-(4-(trifluoromethoxy)phenyl)benzo[d]isoxazole]
- inhibition at 1 µM [1]: 40.5%
- inhibition at 10 µM [2]: < 5%

Structure (SMILES): COc1cc(OC(F)(F)F)ccc1-c1ccc2onc(OCc3ncccn3)c2c1 [Example 4, 5-(2-methoxy-4-(trifluoromethoxy)phenyl)-3-(pyrimidin-2-ylmethoxy)benzo[d]isoxazole]
- inhibition at 0.3 µM [1]: 29.7%
- inhibition at 1 µM [1]: 62.9%
- inhibition at 10 µM [2]: 14.2%

Structure (SMILES): Cc1cn(-c2noc3ccc(-c4ccc(OC(F)(F)F)cc4)cc23)cn1 [Example 139, 3-(4-methyl-1H-imidazol-1-yl)-5-(4-(trifluoromethoxy)phenyl)benzo[d]isoxazole]
- inhibition at 1 µM [1]: 41.2%
- inhibition at 10 µM [2]: 8.8%

Structure (SMILES): COc1ccnc(COc2noc3ccc(-c4ccc(OC(F)(F)F)cc4)cc23)n1 [Example 67, 3-((4-methoxypyrimidin-2-yl)methoxy)-5-(4-(trifluoromethoxy)phenyl)benzo[d]isoxazole]
- inhibition at 0.3 µM [1]: 54.4%
- inhibition at 1 µM [1]: 77.4%
- inhibition at 10 µM [2]: 5.26%

Structure (SMILES): CC(C)c1nccn1-c1noc2ccc(-c3ccc(OC(F)(F)F)cc3)cc12 [Example 144, 3-(2-isopropyl-1H-imidazol-1-yl)-5-(4-(trifluoromethoxy)phenyl)benzo[d]isoxazole]
- inhibition at 0.3 µM [1]: 25.9%
- inhibition at 1 µM [1]: 55.7%
- inhibition at 10 µM [2]: 73.2%

Structure (SMILES): FC(F)(F)Oc1ccc(-c2ccc3onc(OCc4nnc(C5CC5)o4)c3c2)cc1 [Example 96, 3-((5-cyclopropyl-1,3,4-oxadiazol-2-yl)methoxy)-5-(4-(trifluoromethoxy)phenyl)benzo[d]isoxazole]
- inhibition at 0.3 µM [1]: 21.1%
- inhibition at 1 µM [1]: 59.2%
- inhibition at 10 µM [2]: 29.4%

Structure (SMILES): O=C1CCCN1CCNc1noc2ccc(-c3ccc(OC(F)(F)F)cc3)cc12 [Example 135, 1-(2-((5-(4-(trifluoromethoxy)phenyl)benzo[d]isoxazol-3-yl)amino)ethyl)pyrrolidin-2-one]
- inhibition at 0.3 µM [1]: 19.7%
- inhibition at 1 µM [1]: 48.8%
- inhibition at 10 µM [2]: 87.2%

Structure (SMILES): COc1ccnc(CNc2noc3ccc(-c4ccc(OC(F)(F)F)cc4)cc23)n1 [Example 149, N-((4-methoxypyrimidin-2-yl)methyl)-5-(4-(trifluoromethoxy)phenyl)benzo[d]isoxazol-3-amine]
- inhibition at 0.3 µM [1]: 50.9%
- inhibition at 1 µM [1]: 87.6%
- inhibition at 10 µM [2]: 50%

Structure (SMILES): FC(F)(F)Oc1ccc(-c2ccc3onc(OC[C@H]4COCCN4)c3c2)cc1 [Example 114, (R)-3-(morpholin-3-ylmethoxy)-5-(4-(trifluoromethoxy)phenyl)benzo[d]isoxazole]
- inhibition at 0.3 µM [1]: 22.5%
- inhibition at 1 µM [1]: 61.2%
- inhibition at 10 µM [2]: 87.1%

Structure (SMILES): CC(C)[C@@H](COc1noc2ccc(-c3ccc(OC(F)(F)F)cc3)cc12)N1CCCC1=O [Example 120, (S)-1-(3-methyl-1-((5-(4-(trifluoromethoxy)phenyl)benzo[d]isoxazol-3-yl)oxy)butan-2-yl)pyrrolidin-2-one]
- inhibition at 0.3 µM [1]: 35.8%
- inhibition at 1 µM [1]: 58.2%
- inhibition at 10 µM [2]: 68.9%

Structure (SMILES): Cc1nnc(COc2noc3ccc(-c4ccc(OC(F)(F)F)cc4)cc23)o1 [Example 99, 3-((5-methyl-1,3,4-oxadiazol-2-yl)methoxy)-5-(4-(trifluoromethoxy)phenyl)benzo[d]isoxazole]
- inhibition at 0.3 µM [1]: 42.3%
- inhibition at 1 µM [1]: 72.3%
- inhibition at 10 µM [2]: 30%

Structure (SMILES): Cc1cc2onc(OCc3ncccn3)c2cc1-c1ccc(C(F)(F)F)cc1F [Example 28, 5-(2-fluoro-4-(trifluoromethyl)phenyl)-6-methyl-3-(pyrimidin-2-ylmethoxy)benzo[d]isoxazole]
- inhibition at 0.3 µM [1]: 26.7%
- inhibition at 1 µM [1]: 54.4%
- inhibition at 10 µM [2]: < 5%

Structure (SMILES): Cc1ncn(-c2noc3ccc(-c4ccc(OC(F)(F)F)cc4)cc23)n1 [Example 141, 3-(3-methyl-1H-1,2,4-triazol-1-yl)-5-(4-(trifluoromethoxy)phenyl)benzo[d]isoxazole]
- inhibition at 1 µM [1]: 38.6%
- inhibition at 10 µM [2]: 31.5%

Structure (SMILES): CC(C)(C)OC(=O)N1CCOC[C@H]1COc1noc2ccc(-c3ccc(OC(F)(F)F)cc3)cc12 [Example 111, tert-butyl(S)-3-(((5-(4-(trifluoromethoxy)phenyl)benzo[d]isoxazol-3-yl)oxy)methyl)morpholine-4-carboxylate]
- inhibition at 1 µM [1]: 35.1%
- inhibition at 10 µM [2]: 50.4%

Structure (SMILES): FC(F)(F)Oc1ccc(-c2ccc3onc(OCc4cnccn4)c3c2)cc1 [Example 151, 3-(pyrazin-2-ylmethoxy)-5-(4-(trifluoromethoxy)phenyl)benzo[d]isoxazole]
- inhibition at 0.3 µM [1]: 50.7%
- inhibition at 1 µM [1]: 70.1%
- inhibition at 10 µM [2]: 20%

Structure (SMILES): O=C1OCCN1CCOc1noc2ccc(-c3ccc(OC(F)(F)F)cc3)cc12 [Example 75, 3-(2-((5-(4-(trifluoromethoxy)phenyl)benzo[d]isoxazol-3-yl)oxy)ethyl)oxazolidin-2-one]
- inhibition at 0.3 µM [1]: 29.3%
- inhibition at 1 µM [1]: 59.5%
- inhibition at 10 µM [2]: 34.2%

Structure (SMILES): CC(C)c1nnc(COc2noc3ccc(-c4ccc(OC(F)(F)F)cc4)cc23)o1 [Example 100, 3-((5-isopropyl-1,3,4-oxadiazol-2-yl)methoxy)-5-(4-(trifluoromethoxy)phenyl)benzo[d]isoxazole]
- inhibition at 0.3 µM [1]: 31.7%
- inhibition at 1 µM [1]: 61.9%
- inhibition at 10 µM [2]: 9.9%

Structure (SMILES): C[C@H](COc1noc2ccc(-c3ccc(OC(F)(F)F)cc3)cc12)N1CCCC1=O [Example 119, (R)-1-(1-((5-(4-(trifluoromethoxy)phenyl)benzo[d]isoxazol-3-yl)oxy)propan-2-yl)pyrrolidin-2-one]
- inhibition at 1 µM [1]: 51.2%
- inhibition at 10 µM [2]: 56.3%

Structure (SMILES): Cc1cc(-c2ccc(OC(F)(F)F)cc2)cc2c(OCc3nnc(C4CC4)o3)noc12 [Example 105, 3-((5-cyclopropyl-1,3,4-oxadiazol-2-yl)methoxy)-7-methyl-5-(4-(trifluoromethoxy)phenyl)benzo[d]isoxazole]
- inhibition at 1 µM [1]: 53.7%
- inhibition at 10 µM [2]: 75.7%

Structure (SMILES): Cc1nccnc1COc1noc2ccc(-c3ccc(OC(F)(F)F)cc3)cc12 [Example 152, 3-((3-methylpyrazin-2-yl)methoxy)-5-(4-(trifluoromethoxy)phenyl)benzo[d]isoxazole]
- inhibition at 0.3 µM [1]: 19.8%
- inhibition at 1 µM [1]: 53.4%
- inhibition at 10 µM [2]: 11.4%

Structure (SMILES): FC(F)(F)Oc1ccc(-c2ccc3onc(Oc4ncccn4)c3c2)cc1 [Example 124, 3-(pyrimidin-2-yloxy)-5-(4-(trifluoromethoxy)phenyl)benzo[d]isoxazole]
- inhibition at 1 µM [1]: 53.7%
- inhibition at 10 µM [2]: 35%

Structure (SMILES): Cc1ccnc(COc2noc3ccc(-c4ccc(OC(F)(F)F)cc4)cc23)n1 [Example 5, 3-((4-methylpyrimidin-2-yl)methoxy)-5-(4-(trifluoromethoxy)phenyl)benzo[d]isoxazole]
- inhibition at 0.3 µM [1]: 38.2%
- inhibition at 1 µM [1]: 54.5%
- inhibition at 10 µM [2]: < 5%

Structure (SMILES): CC(=O)N1CC(COc2noc3ccc(-c4ccc(OC(F)(F)F)cc4)cc23)C1 [Example 110, 1-(3-(((5-(4-(trifluoromethoxy)phenyl)benzo[d]isoxazol-3-yl)oxy)methyl)azetidin-1-yl)ethan-1-one]
- inhibition at 0.3 µM [1]: 25.7%
- inhibition at 1 µM [1]: 62.7%
- inhibition at 10 µM [2]: 77.7%

Structure (SMILES): COc1cc(-c2ccc(OC(F)(F)F)cc2)cc2c(OCc3ncccn3)noc12 [Example 22, 7-methoxy-3-(pyrimidin-2-ylmethoxy)-5-(4-(trifluoromethoxy)phenyl)benzo[d]isoxazole]
- inhibition at 0.3 µM [1]: 17.7%
- inhibition at 1 µM [1]: 55.9%
- inhibition at 10 µM [2]: 28.1%
